From ChEMBL document CHEMBL4376824, “Anti-Lymphangiogenic Alkaloids from the Zoanthid Zoanthus vietnamensis Collected in Taiwan” (J Nat Prod, 2019)
The source made the active and inactive calls. The rule behind the calls is not given here.

Assays:
[1] = Anti-lymphangiogenic activity in HDLEC assessed as cell growth at 50 ug/ml incubated for 48 hrs by SRB staining based assay relative to control; assay type: functional; conditions: Homo sapiens, read-out: Activity
Homo sapiens = species: Homo sapiens; experiment: Anti-lymphangiogenic activity in HDLEC assessed as reduction in tube formation at 50 ug/ml incubated for 8 hrs by matrigel tube formation based inverted phase contrast microscopic analysis; assay type: functional
[2] = Cytotoxicity against HDLEC at 50 ug/ml incubated for 24 hrs by LDH assay; conditions: human
[3] = Anti-lymphangiogenic activity in HDLEC assessed as reduction in tube formation incubated for 8 hrs by matrigel tube formation based inverted phase contrast microscopic analysis; assay type: functional, Homo sapiens
[4] = Anti-lymphangiogenic activity in HDLEC assessed as cell growth at 10 ug/ml incubated for 48 hrs by SRB staining based assay relative to control; assay type: functional; conditions: Homo sapiens, read-out: Activity

Row | Compound | growth at 50 µg/mL [1] [%] | further results
1 | CC1=CC(=O)[C@@H]2[C@@H](C1)[C@]13CO[C@@]4([C@@H]1O)N1C[C@H]5C[C@H](C)C[C@@]1(O5)[C@@H](O)C[C@@]4(C)[C@]1(COC(=O)C1)[C@H]3C(=O)[C@@H]2C | 100 | 
2 | CC1=CC(=O)[C@@H]2[C@@H](C1)[C@]13C=C4N5C[C@H]6C[C@H](C)C[C@]5(CC[C@@]4(C)[C@]4(COC(=O)C4)[C@H]1[C@@](O)(OC3)[C@@H]2C)O6 | 88 | 
3 | C[C@H]1C[C@@H]2CN3[C@H]4C(=O)[C@@]56CO[C@]7(C)CC(=O)[C@@H]([C@H]5C7)[C@@H](C)C(=O)[C@@H]6[C@@]5(COC(=O)C5)[C@]4(C)CC[C@@]3(C1)O2 | 86 | 
4 | C[C@H]1C[C@@H]2CN3C4=C[C@@]56CO[C@@](O)([C@H](C)[C@@H]7C(=O)C=C(CO)C[C@H]75)[C@@H]6[C@@]5(COC(=O)C5)[C@]4(C)CC[C@@]3(C1)O2 | 60 | inhibition (Homo sapiens): Active; Activity [2]: Non-Toxic; IC50 [3]: 99 µM
5 | CC1=CC(=O)[C@@H]2[C@@H](C1)[C@]13CO[C@@]4([C@@H]1O)N1C[C@H]5C[C@H](C)C[C@]1(CC[C@@]4(C)[C@]1(COC(=O)C1)[C@H]3C(=O)[C@@H]2C)O5 | 81 | 
6 | COC(=O)CNCC1=CC(=O)[C@@H]2[C@@H](C1)[C@]13C=C4N5C[C@H]6C[C@H](C)C[C@]5(CC[C@@]4(C)[C@]4(COC(=O)C4)[C@H]1[C@@](O)(OC3)[C@@H]2C)O6 | 38 | inhibition (Homo sapiens): Active; Activity [2]: Non-Toxic; IC50 [3]: 68 µM
7 | C[C@H]1C[C@@H]2CN3C4=C[C@@]56CO[C@]7(C)CC(=O)[C@@H]([C@H]5C7)[C@@H](C)C(=O)[C@@H]6[C@@]5(COC(=O)C5)[C@]4(C)CC[C@@]3(C1)O2 | 85 | 
8 | C[C@H]1C[C@@H]2CN3C4=C[C@@]56CO[C@]7(C)CC(=O)[C@@H]([C@H]5C7)[C@@H](C)C(=O)[C@H]6[C@@]5(COC(=O)C5)[C@]4(C)CC[C@@]3(C1)O2 | 82 | 
9 | C[C@H]1C[C@@H]2CN3C4=C[C@@]5(C)[C@@H]6CC(CO)=CC(=O)[C@H]6[C@@H](C)C(=O)[C@@H]5[C@@]5(COC(=O)C5)[C@]4(C)CC[C@@]3(C1)O2 | 56 | inhibition (Homo sapiens): Active; Activity [2]: Non-Toxic; IC50 [3]: 98 µM
10 | C[C@H]1C[C@@H]2CN3[C@](CC[C@@]4(C)[C@]5(COC(=O)C5)[C@H]5C(=O)[C@H](C)[C@@H]6C(=O)C=C(CO)C[C@H]6[C@@]56CO[C@@]34[C@@H]6O)(C1)O2 | 66 | 
11 | CC1=CC(=O)[C@@H]2[C@@H](C1)[C@]13C=C4N5C[C@H]6C[C@H](C)C[C@@]5(O6)[C@@H](O)C[C@@]4(C)[C@]4(COC(=O)C4)[C@H]1[C@@](O)(OC3)[C@@H]2C | 83 | 
12 | CC1=CC(=O)[C@@H]2[C@@H](C1)[C@]13C=C4N5C[C@@H]6O[C@@]5(CC[C@@]4(C)[C@]4(COC(=O)C4)[C@H]1[C@@](O)(OC3)[C@@H]2C)C[C@@H](C)[C@H]6O | 101 | 
13 | CO[C@H]1C[C@@H]2CC[C@@H](C)[C@@](O)(O2)C(=O)C(=O)N2CCCC[C@H]2C(=O)O[C@H]([C@H](C)C[C@@H]2CC[C@@H](O)[C@H](OC)C2)CC(=O)[C@H](C)/C=C(\C)[C@@H](O)[C@@H](OC)C(=O)[C@H](C)C[C@H](C)/C=C/C=C/C=C/1C [SIROLIMUS] |  | IC50 [3]: 57 µM; growth at 10 µg/mL [4]: 17%
14 | CC1=CC(=O)[C@@H]2[C@@H](C1)[C@]1(C)C=C3N4C[C@@H]5O[C@@]4(CC[C@@]3(C)[C@]3(COC(=O)C3)[C@H]1C(=O)[C@@H]2C)C[C@@H](C)[C@H]5O | 85 | 
15 | COC(=O)CNCC1=CC(=O)[C@@H]2[C@@H](C1)[C@]13CO[C@@]4([C@@H]1O)N1C[C@H]5C[C@H](C)C[C@]1(CC[C@@]4(C)[C@]1(COC(=O)C1)[C@H]3C(=O)[C@@H]2C)O5 | 76 | 
16 | CC1=CC(=O)[C@@H]2[C@@H]([C@@H]1O)[C@]1(C)C=C3N4C[C@H]5C[C@H](C)C[C@]4(CC[C@@]3(C)[C@]3(COC(=O)C3)[C@H]1C(=O)[C@@H]2C)O5 | 75 | 
17 | CC1=CC(=O)[C@@H]2[C@@H](C1)[C@]1(C)C=C3N4C[C@H]5C[C@H](C)C[C@]4(CC[C@@]3(C)[C@]3(COC(=O)C3)[C@H]1C(=O)[C@@H]2C)O5 | 91 | 
18 | CC1=CC(=O)[C@@H]2[C@@H](C1)[C@]13CO[C@@]4([C@@H]1O)N1C[C@@H]5O[C@@]1(CC[C@@]4(C)[C@]1(COC(=O)C1)[C@H]3C(=O)[C@@H]2C)C[C@@H](C)[C@H]5O | 98 | 
